Reference: patent US7138361B2, “Herbicidal heterocycles” (E. I. du Pont de Nemours and Company, priority 2000, dated 2006)

Legend:
Format in all cases: in vivo
[1] = tested on: barnyardgrass (Echinochloa crus-galli); assay: Test B postemergence; details: 13 to 15 days
Outline: (§1)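 Pre: seeded pots sprayed, chemical in non-phytotoxic solvent/surfactant mix. Post: plants 2–18 cm, 1–4 leaf, same formulation. Greenhouse 13–15 d; visual % control vs untreated, 0–100 scale.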

[2] = tested on: corn (Zea mays); assay: Test B postemergence; details: 13 to 15 days
Outline: as §1

[3] = tested on: wheat (Triticum aestivum); assay: Test B postemergence; details: 13 to 15 days
Outline: as §1

[4] = tested on: wild oat (Avena fatua); assay: Test B postemergence; details: 13 to 15 days
Outline: as §1

[5] = tested on: Nightshade; assay: Test C preemergence
[6] = tested on: corn (Zea mays); assay: Test C preemergence
Outline: (§2)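 Test chemicals, formulated in a non-phytotoxic solvent mixture with surfactant, were applied preemergence to planted seeds or postemergence to plants 2 to 18 cm tall (1- to 4-leaf stage). After 12 to 14 days in a greenhouse, injury was visually rated against untreated controls on a 0–100 scale.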

[7] = tested on: johnsongrass (Sorghum halepense); assay: Test C preemergence
Outline: as §2

[8] = tested on: kochia (Kochia scoparia); assay: Test C preemergence
Outline: as §2

[9] = tested on: lambsquarters (Chenopodium album); assay: Test C preemergence
Outline: as §2

[10] = tested on: pigweed (Amaranthus retroflexus); assay: Test C preemergence
Outline: as §2

[11] = tested on: soybean (Glycine max); assay: Test C preemergence
Outline: as §2

[12] = tested on: woolly cupgrass (Eriochloa villosa); assay: Test C preemergence
Outline: as §2

[13] = tested on: yellow nutsedge (Cyperus esculentus); assay: Test C preemergence
Outline: as §2

[14] = tested on: barnyardgrass (Echinochloa crus-galli); assay: Test C flooded paddy test; details: for Barnyardgrass plant response rating: Flooded Paddy, scale 0 to 100, 0 no effect, 100 complete control; for Plant response rating, Barnyardgrass: flooded paddy test, scale 0 to 100 (0 no effect, 100 complete control)
Outline: (§3)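 2-leaf-stage plants, flooded paddy; treated; greenhouse 12–14 days; compared with controls by eye; rated 0–100 (0 none, 100 complete control).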

[15] = tested on: duck salad (Heteranthera limosa); assay: Test C flooded paddy test; details: for Ducksalad plant response rating: Flooded Paddy, scale 0 to 100, 0 no effect, 100 complete control; for Plant response rating, Ducksalad: flooded paddy test, scale 0 to 100 (0 no effect, 100 complete control)
Outline: as §3

[16] = tested on: rice (Oryza saliva); assay: Test C flooded paddy test; details: for Rice plant response rating: Flooded Paddy, scale 0 to 100, 0 no effect, 100 complete control; for Plant response rating, Rice: flooded paddy test, scale 0 to 100 (0 no effect, 100 complete control)
Outline: as §3

[17] = tested on: smallflower flatsedge (Cyperus difformis); assay: Test C flooded paddy test; details: for Flatsedge plant response rating: Flooded Paddy, scale 0 to 100, 0 no effect, 100 complete control; for Plant response rating, Flatsedge: flooded paddy test, scale 0 to 100 (0 no effect, 100 complete control)
Outline: as §3

[18] = tested on: Sunflower; assay: Test C preemergence; details: scale 0 to 100, 0 no effect, 100 complete control
[19] = Rate 125 g/ha, scale 0 (no effect) to 100 (complete control)
[20] = Rate 500 g/ha, scale 0 to 100, 0 is no effect, 100 is complete control
[21] = Rate 62 g/ha; scale 0 to 100, 0 no effect, 100 complete control
[22] = Rate 125 g/ha, scale 0 to 100, 0 no effect, 100 complete control
[23] = Rate 62 g/ha, scale 0 to 100, 0 no effect, 100 complete control
[24] = preemergence, Rate 16 g/ha, scale 0 to 100
[25] = preemergence, Rate 31 g/ha, scale 0 to 100
[26] = preemergence, Rate 125 g/ha, scale 0 to 100, 0 no effect, 100 complete control
[27] = preemergence, Rate 250 g/ha, visual evaluation after 12 to 14 days
[28] = preemergence, Rate 250 g/ha, scale 0 to 100, 0 no effect, 100 complete control

CC(C)(C)c1ccn(C2CCN(c3cccc(Cl)c3)C2=O)n1 (stereo not drawn) [Compound 43]
Plant response rating, Barnyardgrass [1, 19]: 0
Plant response rating, Barnyardgrass [1, 20]: 70
Plant response rating, Corn [2, 19]: 0
Plant response rating, Corn [2, 20]: 0
Plant response rating, Wheat [3, 19]: 0
Plant response rating, Wheat [3, 20]: 0
Plant response rating, Wild Oat [4, 19]: 0
Plant response rating, Wild Oat [4, 20]: 0
Plant response rating, Nightshade ([5]; Rate 16 g/ha, scale 0 to 100): 0
Plant response rating, Nightshade ([5]; Rate 31 g/ha, scale 0 to 100): 0
Plant response rating, Nightshade [5, 21]: 0
Plant response rating, Nightshade [5, 22]: 0
Plant response rating, Corn [6, 23]: 0
Plant response rating, Corn [6, 24]: 0
Plant response rating, Corn [6, 25]: 0
Plant response rating, Corn [6, 26]: 0
Plant response rating, Johnsongrass [7, 23]: 0
Plant response rating, Johnsongrass [7, 24]: 0
Plant response rating, Johnsongrass [7, 25]: 0
Plant response rating, Johnsongrass [7, 26]: 50
Plant response rating, Kochia [8, 23]: 90
Plant response rating, Kochia [8, 24]: 20
Plant response rating, Kochia [8, 25]: 70
Plant response rating, Kochia [8, 26]: 100
Plant response rating, Lambsquarters [9, 23]: 100
Plant response rating, Lambsquarters [9, 24]: 100
Plant response rating, Lambsquarters [9, 25]: 100
Plant response rating, Lambsquarters [9, 26]: 100
Plant response rating, Pigweed [10, 23]: 100
Plant response rating, Pigweed [10, 24]: 20
Plant response rating, Pigweed [10, 25]: 100
Plant response rating, Pigweed [10, 26]: 0
Plant response rating, Soybean [11, 23]: 0
Plant response rating, Soybean [11, 24]: 0
Plant response rating, Soybean [11, 25]: 0
Plant response rating, Soybean [11, 26]: 40
Plant response rating, Cupgrass, Woolly [12, 23]: 30
Plant response rating, Cupgrass, Woolly [12, 24]: 0
Plant response rating, Cupgrass, Woolly [12, 25]: 0
Plant response rating, Cupgrass, Woolly [12, 26]: 30
Plant response rating, Nutsedge [13, 23]: 0
Plant response rating, Nutsedge [13, 24]: 0
Plant response rating, Nutsedge [13, 25]: 0
Plant response rating, Nutsedge [13, 26]: 30
Barnyardgrass plant response rating ([14]; Rate 250 g/ha): 100
Barnyardgrass plant response rating ([14]; Rate 500 g/ha): 100
Plant response rating, Barnyardgrass ([14]; Rate 62 g/ha): 30
Plant response rating, Barnyardgrass ([14]; Rate 125 g/ha): 80
Ducksalad plant response rating ([15]; Rate 250 g/ha): 30
Ducksalad plant response rating ([15]; Rate 500 g/ha): 80
Plant response rating, Ducksalad ([15]; Rate 62 g/ha): 0
Plant response rating, Ducksalad ([15]; Rate 125 g/ha): 20
Rice plant response rating ([16]; Rate 250 g/ha): 0
Rice plant response rating ([16]; Rate 500 g/ha): 30
Plant response rating, Rice ([16]; Rate 62 g/ha): 0
Plant response rating, Rice ([16]; Rate 125 g/ha): 0
Flatsedge plant response rating ([17]; Rate 250 g/ha): 100
Flatsedge plant response rating ([17]; Rate 500 g/ha): 100
Plant response rating, Flatsedge ([17]; Rate 62 g/ha): 90
Plant response rating, Flatsedge ([17]; Rate 125 g/ha): 100
Plant response rating, Sunflower ([18]; Rate 125 g/ha): 0

CCC(CC)c1ccn(C2SCN(c3cccc(C(F)(F)F)c3)C2=O)n1 (stereo not drawn) [Compound 21]
Plant response rating, Barnyardgrass [1, 19]: 90
Plant response rating, Barnyardgrass [1, 20]: 100
Plant response rating, Corn [2, 19]: 0
Plant response rating, Corn [2, 20]: 0
Plant response rating, Wheat [3, 19]: 0
Plant response rating, Wheat [3, 20]: 0
Plant response rating, Wild Oat [4, 19]: 0
Plant response rating, Wild Oat [4, 20]: 0
Plant response rating, Nightshade ([5]; Rate 31 g/ha, scale 0 to 100): 80
Plant response rating, Nightshade [5, 21]: 90
Plant response rating, Nightshade [5, 22]: 100
Plant response rating, Corn [6, 23]: 20
Plant response rating, Corn [6, 25]: 20
Plant response rating, Corn [6, 26]: 20
Plant response rating, Johnsongrass [7, 23]: 70
Plant response rating, Johnsongrass [7, 25]: 30
Plant response rating, Johnsongrass [7, 26]: 90
Plant response rating, Kochia [8, 23]: 90
Plant response rating, Kochia [8, 25]: 90
Plant response rating, Kochia [8, 26]: 90
Plant response rating, Lambsquarters [9, 23]: 100
Plant response rating, Lambsquarters [9, 25]: 90
Plant response rating, Lambsquarters [9, 26]: 100
Plant response rating, Pigweed [10, 23]: 80
Plant response rating, Pigweed [10, 25]: 30
Plant response rating, Pigweed [10, 26]: 100
Plant response rating, Soybean [11, 23]: 40
Plant response rating, Soybean [11, 25]: 30
Plant response rating, Soybean [11, 26]: 80
Plant response rating, Cupgrass, Woolly [12, 23]: 80
Plant response rating, Cupgrass, Woolly [12, 25]: 40
Plant response rating, Cupgrass, Woolly [12, 26]: 80
Plant response rating, Nutsedge [13, 23]: 50
Plant response rating, Nutsedge [13, 25]: 20
Plant response rating, Nutsedge [13, 26]: 60
Barnyardgrass plant response rating ([14]; Rate 250 g/ha): 50
Barnyardgrass plant response rating ([14]; Rate 500 g/ha): 100
Plant response rating, Barnyardgrass ([14]; Rate 62 g/ha): 40
Plant response rating, Barnyardgrass ([14]; Rate 125 g/ha): 50
Ducksalad plant response rating ([15]; Rate 250 g/ha): 90
Ducksalad plant response rating ([15]; Rate 500 g/ha): 100
Plant response rating, Ducksalad ([15]; Rate 62 g/ha): 80
Plant response rating, Ducksalad ([15]; Rate 125 g/ha): 90
Rice plant response rating ([16]; Rate 250 g/ha): 70
Rice plant response rating ([16]; Rate 500 g/ha): 70
Plant response rating, Rice ([16]; Rate 62 g/ha): 0
Plant response rating, Rice ([16]; Rate 125 g/ha): 20
Flatsedge plant response rating ([17]; Rate 250 g/ha): 90
Flatsedge plant response rating ([17]; Rate 500 g/ha): 100
Plant response rating, Flatsedge ([17]; Rate 62 g/ha): 80
Plant response rating, Flatsedge ([17]; Rate 125 g/ha): 90
Plant response rating, Sunflower ([18]; Rate 125 g/ha): 70

CCC(CC)c1ccn(C2CCN(c3ccc(C)c(OC)c3)C2=O)n1 (stereo not drawn) [Compound 81]
Plant response rating, Barnyardgrass [1, 19]: 0
Plant response rating, Barnyardgrass [1, 20]: 0
Plant response rating, Corn [2, 19]: 10
Plant response rating, Corn [2, 20]: 10
Plant response rating, Wheat [3, 19]: 0
Plant response rating, Wheat [3, 20]: 0
Plant response rating, Wild Oat [4, 19]: 0
Plant response rating, Wild Oat [4, 20]: 0
Plant response rating, Nightshade ([5]; Rate 31 g/ha, scale 0 to 100): 70
Plant response rating, Nightshade [5, 21]: 100
Plant response rating, Nightshade ([5]; Rate 125 g/ha; scale 0 to 100, 0 no effect, 100 complete control): 100
Plant response rating, Nightshade ([5]; Rate 250 g/ha, scale 0 to 100, 0 no effect, 100 complete control): 100
Plant response rating, Corn [6, 23]: 0
Plant response rating, Corn [6, 22]: 0
Plant response rating, Corn [6, 25]: 0
Plant response rating (0 to 100), Corn [6, 27]: 0
Plant response rating, Johnsongrass [7, 23]: 0
Plant response rating, Johnsongrass [7, 22]: 20
Plant response rating, Johnsongrass [7, 25]: 0
Plant response rating (0 to 100), Johnsongrass [7, 27]: 20
Plant response rating, Kochia [8, 23]: 100
Plant response rating, Kochia [8, 22]: 100
Plant response rating, Kochia [8, 25]: 100
Plant response rating (0 to 100), Kochia [8, 27]: 100
Plant response rating, Lambsquarters [9, 23]: 100
Plant response rating, Lambsquarters [9, 22]: 100
Plant response rating, Lambsquarters [9, 25]: 100
Plant response rating, Lambsquarters [9, 28]: 100
Plant response rating, Pigweed [10, 22]: 100
Plant response rating, Pigweed [10, 25]: 100
Plant response rating, Pigweed [10, 28]: 100
Plant response rating, Soybean [11, 25]: 30
Plant response rating, Soybean [11, 28]: 100
Plant response rating, Cupgrass, Woolly [12, 23]: 30
Plant response rating, Cupgrass, Woolly [12, 22]: 30
Plant response rating, Cupgrass, Woolly [12, 25]: 0
Plant response rating (0 to 100), Cupgrass, Woolly [12, 27]: 100
Plant response rating, Nutsedge [13, 23]: 0
Plant response rating, Nutsedge [13, 22]: 0
Plant response rating, Nutsedge [13, 25]: 0
Plant response rating, Nutsedge [13, 28]: 0
Barnyardgrass plant response rating ([14]; Rate 250 g/ha): 90
Barnyardgrass plant response rating ([14]; Rate 500 g/ha): 90
Plant response rating, Barnyardgrass ([14]; Rate 62 g/ha): 20
Plant response rating, Barnyardgrass ([14]; Rate 125 g/ha): 80
Ducksalad plant response rating ([15]; Rate 250 g/ha): 90
Ducksalad plant response rating ([15]; Rate 500 g/ha): 100
Plant response rating, Ducksalad ([15]; Rate 62 g/ha): 80
Plant response rating, Ducksalad ([15]; Rate 125 g/ha): 90
Rice plant response rating ([16]; Rate 250 g/ha): 80
Rice plant response rating ([16]; Rate 500 g/ha): 80
Plant response rating, Rice ([16]; Rate 62 g/ha): 0
Plant response rating, Rice ([16]; Rate 125 g/ha): 0
Flatsedge plant response rating ([17]; Rate 250 g/ha): 90
Flatsedge plant response rating ([17]; Rate 500 g/ha): 90
Plant response rating, Flatsedge ([17]; Rate 62 g/ha): 90
Plant response rating, Flatsedge ([17]; Rate 125 g/ha): 90
Plant response rating, Sunflower ([18]; Rate 250 g/ha): 0
